Test [1] relates to bFGF-induced SRE-luciferase expression in SWISS3T3 cells. As to the kind of experiment: SRE-luciferase reporter antagonist assay, bFGF induction. Type of test: cell-based. Particulars: 2.0 ng/ml bFGF; SWISS3T3/KZ67-G1-6 cells; 5 hours at 37° C. The method, then:
(§1) Initial characterization of Brefeldin A as a non-peptide PDGF antagonist was made possible through an SRE-Luciferase high through-put assay system which identifies substances that are able to block expression of a serum response element (SRE)-luciferase reporter gene expressed in SWISS3T3 cells. […] The degree of antagonist specificity can be determined by comparing the resultant signal for the three growth factors (PDGF, bFGF, and EGF). […]
(§2) Folowing induction, luciferase activity was measured using a Promega luciferase assay kit (E1500; Promega Corp., Madison, Wis.) according to the assay kit protocol. […] The amount of luminescence (relative light units, RLU) was determined following a 1 second mix and a 1-3 integration of signal. Basal (uninduced) luciferase signal was substracted from all measurements,and the luciferase signal induced by test samples was expressed as a percentage of the signal from the controls. […]

In test [2] the test system is EGF-induced SRE-luciferase expression in SWISS3T3 cells. The experiment in a line: SRE-luciferase reporter antagonist assay, EGF induction. Type of test: cell-based. Particulars: 4.5 ng/ml EGF; SWISS3T3/KZ67-G1-6 cells; 5 hours at 37° C. The method, then:
as §1, §2

In test [3] the test system is 125I-PDGF-BB binding to rat SMCs. As to the kind of experiment: Inhibition of 125I-PDGF-BB binding to rat smooth muscle cells. Particulars: 4° C.; for % Control Binding: negative control = 100, 90 min; for 125I PDGF-BB Bound (CPM): specific cpm, nonspecific subtracted, negative control 10006. The procedure: Brefeldin A was analyzed for the ability to inhibit ^125 I-PDGF-BB binding to monolayers of rat SMCs. SMCs were plated at approximately 20,000 cells/well in 24-well culture dishes. The cells were used for assay 2-7 days after plating. The test compound was diluted in binding media (500 ml Hams F-12 (Gibco BRL), 12 ml 1M Hepes pH 7.4, 5 ml 100X PSN, 1 gm rabbit serum albumin (Sigma Chemical Co., St. Louis, Mo.) to the concentrations shown in Table 2, then added to the SMCs (1 ml/well) in triplicate. To the wells was then added 50 μl of a ^125 I-PDGF-BB binding stock solution. Binding media alone was used as the negative control, and the addition of 200 ng/ml of PDGF-BB was used to determine nonspecific binding for ^125 I-PDGF-BB. The cells were incubated for approximately 11/2 hours at 4° C., then washed with binding media to remove unbound ligand. The cells were then incubated with extraction buffer (20 mM Tris-HCl pH 8.0, 100 mM NaCl, 1 mM EDTA, 0.5% sodium deoxycholate, 10 mM NaI, 1% bovine serum albumin), and the extracts were harvested and counted in a gamma counter. The data are presented as specific cpm bound for ^125 I-PDGF-BB. Nonspecific binding, determined by the addition of 200 ng/ml of unlabeled PDGF-BB, was 853 cpm, and has been subtracted from the data presented.

Test [4] concerns PDGF-BB mitogenic activity on baboon smooth muscle cells. As to the kind of experiment: Inhibition of PDGF-BB mitogenic activity on baboon smooth muscle cells ([3H] thymidine incorporation). Type of test: cell-based. The procedure:
Brefeldin A was analyzed for the ability to inhibit the mitogenic activity of PDGF on baboon smooth muscle cells. All mitogenesis assays performed on baboon vascular smooth muscle cells (BVSMCs) were done on primary cultures of cells between passages 13 and 20 in culture. The initial cultures were established from outgrowth of aortic tissue explants. Baboon smooth muscle cells were plated at approximately 20,000 cells per well, in DMEM supplemented with 10% fetal calf serum, into 24-well culture dishes. One day prior to use the culture media was removed, and 1 ml of Mito Media (Table 3) was added to each well to allow the cells to become quiescent. At the time of the experiment the cells were stimulated with PDGF-BB. […] 20X stock solutions were made for each of the PDGF concentrations by dilution in 10 mM acetic acid containing 0.25% albumin, and 50 μl of PDGF or dilution vehicle alone was added to the culture wells. To analyze the activity of Brefeldin A to neutralize PDGF-BB mitogenic activity, 1 ng/ml of PDGF was added to wells along with dilutions of Brefeldin A. The cells were incubated with the test samples for approximately 20 hours at 37° C. Fifty μl of a 20x stock solution was then added to each well to give a final concentration of 1 μCi/ml. The cells were incubated for 4 hours at 37° C., washed with PBS, then harvested with trypsin and counted for [^3 H] thymidine incorporation in a Wallac (Turku, Finland) Betaplate™ liquid scintillation counter. […] As part of this same experiment, the inhibitory potency of Brefeldin A was analyzed in the presence of heparin to determine if heparin is able to act in a combinatorial manner with Brefeldin A for inhibiting PDGF-BB mitogenic activity. Baboon smooth muscle cells were incubated in Brefeldin A with 1 ng/ml PDGF-BB in the presence of 0.5 U/ml of unfractionated heparin. The cells were pulse-labeled with [^3 H] thymidine as described above, and the level of [^3 H] thymidine incorporation was determined.

Regarding `CC1CCCC=CC2CC(O)CC2C(O)C=CC(=O)O1` (centres unmarked) [Brefeldin A, 1,6,7,8,9,11a,12,13,14,14a-Decahydro-1,13-dihydroxy-6-methyl-4H-cyclopent[f]oxacyclotridecin-4-one], in test [1], the “bFGF EC50” value was “No activity”. In addition, the “EGF EC50” value in test [2] is recorded as “No activity”. The “% Control Binding” value is given as 92% in test [3] (50 μM) and 89% in test [3] (100 μM). The “125I PDGF-BB Bound (CPM)” value in test [3] (50 μM) came out at 9199 CPM; in test [3] (100 μM), 8879 CPM. Further, in test [4] (1 ng/ml PDGF-BB), the “PDGF-BB mitogenic activity inhibition (in words)” value is reported as “inhibited by Brefeldin A in a dose dependent fashion”. Moreover, the “3H Thymidine (CPM Incorporated), (+) 0.5 U/ml Heparin” value came to 854 CPM in test [4] (12.5 nM, 1 ng/ml PDGF-BB); 684 CPM in test [4] (25 nM, 1 ng/ml PDGF-BB); 44 CPM in test [4] (50 nM, 1 ng/ml PDGF-BB); 31 CPM in test [4] (100 nM, 1 ng/ml PDGF-BB). Moreover, the “3H Thymidine (CPM Incorporated), (-) Heparin” value in test [4] (12.5 nM, 1 ng/ml PDGF-BB) worked out at 1293 CPM; in test [4] (25 nM, 1 ng/ml PDGF-BB), 798 CPM; in test [4] (50 nM, 1 ng/ml PDGF-BB), 36 CPM; in test [4] (100 nM, 1 ng/ml PDGF-BB) it was 39 CPM. Besides, in test [4] (Papio anubis, 1 ng/ml PDGF-BB, baboon smooth muscle cells, read-out: ED50 for the inhibition of PDGF-BB mitogenic activity), the IC50 was roughly 25 nM. Also, the “doses inhibiting PDGF-BB mitogenic activity versus doses required to inhibit PDGF binding to rat SMCs” value in test [4] (baboon SMC mitogenesis vs rat SMC binding, fold lower) was 1000 fold. In test [4] (with 0.5 U/ml unfractionated heparin, 1 ng/ml PDGF-BB, versus Brefeldin A alone), the “inhibition of [3H] thymidine on addition of heparin (in words)” value was “further inhibition of [^3 H] thymidine above that achieved by Brefeldin A alone”.

B1: PDGF-BB: platelet derived growth factor (protein, UniProt P01127 82-190, looked up)
Platelet-derived growth …: SLGSLTIAEPAMIAECKTRTEVFEISRRLIDRTNANFLVWPPCVEVQRCSGCCNNRNVQCRPTQVQLRPVQVRKIEIVRKKPIFKKATVTLEDHLACKCETVAAARPVT
With B1, the “3H Thymidine (CPM Incorporated), (-) Heparin” value in test [4] (PDGF-BB standard curve, 0.062 ng/ml) was 120 CPM; in test [4] (PDGF-BB standard curve, 0.125 ng/ml), 226 CPM; in test [4] (PDGF-BB standard curve, 0.25 ng/ml), 392 CPM; in test [4] (PDGF-BB standard curve, 0.5 ng/ml, 0 ng/ml gives 74), 959 CPM; in test [4] (PDGF-BB standard curve, 1 ng/ml) it was 1701 CPM.

The values are drawn from patent US5618837A, “PDGF antagonists III” (ZymoGenetics, Inc., priority 1995, dated 1997).
